Results on 18 molecules are retold here after ChEMBL document CHEMBL1641502, “The identification of substituted benzothiophene derivatives as PGE(2) subtype 4 receptor antagonists: From acid to non-acid” (Bioorg Med Chem Lett, 2011).

The target in experiment [1] is T1, Prostaglandin E2 receptor EP4 subtype (Homo sapiens, UniProt P35408). Description: Binding affinity to EP4 receptor.
The target in experiment [2] is T1, Prostaglandin E2 receptor EP4 subtype. Description: Binding affinity to EP4 receptor in presence of 10% HSA.
Another experiment has as its target Prostacyclin receptor (Homo sapiens, UniProt P43119). The experiment in a line: Binding affinity to IP receptor.
A further experiment concerns the target T2, Thromboxane A2 receptor (Homo sapiens, UniProt P21731).
T2 sequence (P21731 whole entry): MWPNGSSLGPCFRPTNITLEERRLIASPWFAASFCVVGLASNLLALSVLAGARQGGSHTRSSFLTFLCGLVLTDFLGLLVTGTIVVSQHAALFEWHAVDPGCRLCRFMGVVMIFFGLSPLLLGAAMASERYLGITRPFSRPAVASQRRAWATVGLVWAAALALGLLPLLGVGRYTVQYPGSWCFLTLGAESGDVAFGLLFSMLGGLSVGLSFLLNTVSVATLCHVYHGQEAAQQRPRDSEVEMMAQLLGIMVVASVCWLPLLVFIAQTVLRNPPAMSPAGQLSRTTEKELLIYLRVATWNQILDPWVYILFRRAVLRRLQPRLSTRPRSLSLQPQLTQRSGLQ
Description: Binding affinity to TP receptor.

Experiment [3] concerns the target Prostaglandin E2 receptor EP2 subtype (Homo sapiens, UniProt P43116). The experiment in a line: Binding affinity to EP2 receptor.
A short description of experiment [4]: Binding affinity to DP receptor.
Experiment [5] concerns the target T3, Prostaglandin E2 receptor EP3 subtype (Homo sapiens, UniProt P43115).
T3 sequence (P43115 whole entry): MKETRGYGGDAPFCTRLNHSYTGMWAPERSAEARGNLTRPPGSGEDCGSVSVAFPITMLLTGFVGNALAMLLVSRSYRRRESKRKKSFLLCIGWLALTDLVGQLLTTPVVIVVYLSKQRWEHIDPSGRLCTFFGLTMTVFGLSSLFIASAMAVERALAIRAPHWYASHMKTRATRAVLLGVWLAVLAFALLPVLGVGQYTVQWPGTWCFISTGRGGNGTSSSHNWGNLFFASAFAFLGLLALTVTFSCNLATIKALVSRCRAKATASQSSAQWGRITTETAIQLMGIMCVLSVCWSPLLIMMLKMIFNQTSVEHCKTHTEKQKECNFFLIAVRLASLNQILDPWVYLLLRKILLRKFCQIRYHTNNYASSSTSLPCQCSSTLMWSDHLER
The experiment in a line: Binding affinity to EP3 receptor.

The target of experiment [6] is T4, Prostaglandin E2 receptor EP1 subtype (Homo sapiens, UniProt P34995).
T4 sequence (P34995 whole entry): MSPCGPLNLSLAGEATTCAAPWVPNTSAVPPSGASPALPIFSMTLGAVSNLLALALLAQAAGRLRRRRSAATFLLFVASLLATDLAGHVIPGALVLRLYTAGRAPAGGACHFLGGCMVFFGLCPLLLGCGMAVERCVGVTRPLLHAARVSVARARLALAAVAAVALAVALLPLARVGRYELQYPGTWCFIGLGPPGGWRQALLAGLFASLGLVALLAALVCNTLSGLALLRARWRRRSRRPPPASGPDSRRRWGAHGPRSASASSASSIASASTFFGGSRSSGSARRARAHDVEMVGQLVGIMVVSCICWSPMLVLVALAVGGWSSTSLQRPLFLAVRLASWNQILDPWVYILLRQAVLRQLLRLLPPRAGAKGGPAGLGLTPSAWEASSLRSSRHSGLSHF
Description: Binding affinity to EP1 receptor.

In experiment [7] the target is T5, Prostaglandin D2 receptor 2 (Homo sapiens, UniProt Q9Y5Y4).
T5 sequence (Q9Y5Y4 whole entry): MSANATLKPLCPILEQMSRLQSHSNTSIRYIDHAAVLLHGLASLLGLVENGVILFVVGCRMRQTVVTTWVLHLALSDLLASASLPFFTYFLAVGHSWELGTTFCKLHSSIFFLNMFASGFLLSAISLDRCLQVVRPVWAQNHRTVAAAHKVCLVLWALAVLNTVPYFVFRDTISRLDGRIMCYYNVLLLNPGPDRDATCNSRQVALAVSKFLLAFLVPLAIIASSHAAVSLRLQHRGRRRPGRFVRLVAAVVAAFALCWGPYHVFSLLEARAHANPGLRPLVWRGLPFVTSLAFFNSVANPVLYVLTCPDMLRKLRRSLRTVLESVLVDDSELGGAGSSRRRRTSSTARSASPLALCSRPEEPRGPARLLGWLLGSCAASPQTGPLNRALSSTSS
Description: Binding affinity to CRTH2 receptor.

Experiment [8] addresses Prostaglandin F2-alpha receptor (Homo sapiens, UniProt P43088). The experiment in a line: Binding affinity to FP receptor.
Experiment [9] has as its target T1, Prostaglandin E2 receptor EP4 subtype. The experiment in a line: Antagonist activity at human EP4 receptor in HEK293 cells by cell-based functional assay.

T1 sequence (P35408 whole entry): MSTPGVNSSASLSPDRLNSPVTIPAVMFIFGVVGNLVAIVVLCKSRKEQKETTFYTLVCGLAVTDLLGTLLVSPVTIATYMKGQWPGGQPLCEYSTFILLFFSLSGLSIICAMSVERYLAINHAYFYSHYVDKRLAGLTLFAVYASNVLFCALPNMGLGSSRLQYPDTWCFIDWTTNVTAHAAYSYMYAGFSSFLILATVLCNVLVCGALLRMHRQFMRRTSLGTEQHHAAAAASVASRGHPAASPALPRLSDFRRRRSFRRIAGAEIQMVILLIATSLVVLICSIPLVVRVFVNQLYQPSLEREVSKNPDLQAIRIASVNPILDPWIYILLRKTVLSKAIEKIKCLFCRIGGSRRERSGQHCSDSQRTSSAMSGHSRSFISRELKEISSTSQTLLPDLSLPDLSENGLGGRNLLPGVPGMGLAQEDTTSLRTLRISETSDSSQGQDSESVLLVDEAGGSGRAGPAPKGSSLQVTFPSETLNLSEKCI
Sequence of Prostacyclin receptor (P43119 whole entry): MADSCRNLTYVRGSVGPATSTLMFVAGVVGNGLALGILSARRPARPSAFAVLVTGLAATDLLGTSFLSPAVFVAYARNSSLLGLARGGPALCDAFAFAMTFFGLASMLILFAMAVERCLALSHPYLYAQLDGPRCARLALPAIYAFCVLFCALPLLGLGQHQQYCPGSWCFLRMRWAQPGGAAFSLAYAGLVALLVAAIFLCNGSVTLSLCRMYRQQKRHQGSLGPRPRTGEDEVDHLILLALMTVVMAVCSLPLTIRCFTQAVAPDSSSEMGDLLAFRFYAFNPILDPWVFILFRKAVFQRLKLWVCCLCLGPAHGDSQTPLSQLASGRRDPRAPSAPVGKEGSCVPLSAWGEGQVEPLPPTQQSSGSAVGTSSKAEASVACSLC
Sequence of Prostaglandin E2 receptor EP2 subtype (P43116 whole entry): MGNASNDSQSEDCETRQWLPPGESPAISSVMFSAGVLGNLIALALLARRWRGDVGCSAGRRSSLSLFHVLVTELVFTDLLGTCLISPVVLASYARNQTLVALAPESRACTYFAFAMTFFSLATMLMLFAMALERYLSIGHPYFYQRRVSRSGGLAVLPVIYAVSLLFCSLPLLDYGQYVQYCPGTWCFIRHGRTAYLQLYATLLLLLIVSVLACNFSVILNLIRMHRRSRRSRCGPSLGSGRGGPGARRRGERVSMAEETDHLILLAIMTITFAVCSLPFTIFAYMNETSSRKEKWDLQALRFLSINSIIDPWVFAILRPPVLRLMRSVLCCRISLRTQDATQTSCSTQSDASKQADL
Sequence of Prostaglandin F2-alpha receptor (P43088 whole entry): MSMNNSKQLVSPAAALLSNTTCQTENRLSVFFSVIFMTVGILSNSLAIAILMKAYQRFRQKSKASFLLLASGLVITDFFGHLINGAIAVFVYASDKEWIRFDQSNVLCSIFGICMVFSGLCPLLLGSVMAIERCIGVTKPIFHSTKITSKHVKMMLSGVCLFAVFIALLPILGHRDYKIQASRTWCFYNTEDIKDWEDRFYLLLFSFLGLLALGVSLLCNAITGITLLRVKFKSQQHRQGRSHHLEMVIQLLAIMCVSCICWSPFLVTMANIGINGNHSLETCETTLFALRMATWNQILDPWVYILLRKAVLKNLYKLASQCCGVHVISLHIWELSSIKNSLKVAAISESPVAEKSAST

In general, Ki refers to a measure of affinity in units of concentration, obtained from inhibition or displacement. Regarding `Cc1cc(C)c2sc(C(=O)N(C)C)c(-c3ccc(-c4nn[nH]n4)cc3)c2c1`, the values for the Ki in experiment [1] and in [2] were 160 nM and 2300 nM, respectively.
Take `COC(=O)c1sc2c(C)cc(C)cc2c1-c1ccc(CCNC(=O)NS(=O)(=O)c2ccc(C)cc2)cc1`: the Ki in [1] was found to be 0.97 nM; in experiment [2] it was 39 nM.
In general, IC50 refers to the concentration needed to halve the response being measured. Lower therefore signals greater potency in that assay. In the case of `Cc1ccc(S(=O)(=O)NC(=O)NCCc2ccc(-c3c(C(=O)N(C)C)sc4c(C)cc(C)cc34)cc2)cc1`, the Ki on Prostacyclin receptor was greater than 7700 nM; at Thromboxane A2 receptor, 61 nM; in [3], 3330 nM; in experiment [4], 73 nM; in experiment [1], 0.54 nM; in [2], 1.4 nM. Further, the Ki is 530 nM in experiment [5], greater than 9500 nM in experiment [6], greater than 7230 nM in experiment [7] and greater than 8700 nM in [8]. For the same molecule, it took 1.2 nM to reach half-maximal inhibition in experiment [9] (IC50).
With `Cc1cc(C)c2sc(C(=O)N(C)C)c(-c3ccc(CCNC(=O)NS(=O)(=O)c4ccc(Cl)cc4)cc3)c2c1`, the Ki in experiment [1] stood at 0.4 nM; in [2] it was 2.2 nM.
In the same order, the values of `Cc1cc(C)c2sc(C(=O)N(C)C)c(-c3ccc(CCNC(=O)NS(=O)(=O)c4ccccc4Cl)cc3)c2c1` are 0.42 nM and 2.7 nM.
As to `Cc1ccc(S(=O)(=O)NC(=O)NCCc2ccc(-c3c(C(N)=O)sc4c(C)cc(C)cc34)cc2)cc1`, the figures for the Ki in [1] and in [2] were 3.8 nM and 650 nM, respectively.
Turning to `CNC(=O)c1sc2c(C)cc(C)cc2c1-c1ccc(CCNC(=O)NS(=O)(=O)c2ccc(C)cc2)cc1`, the Ki in experiment [1] was determined as 0.5 nM; in [2] it was 134 nM.
Consider `Cc1ccc(S(=O)(=O)NC(=O)NCCc2ccc(-c3c(C(=O)N4CCCC4)sc4c(C)cc(C)cc34)cc2)cc1`, for which the Ki in [1] stood at 0.41 nM; in experiment [2] it was 11 nM.
As to `Cc1ccc(S(=O)(=O)NC(=O)NCCc2ccc(-c3c(C(=O)N(C)C)sc4c(Cl)cc(Cl)cc34)cc2)cc1`, the Ki amounted to 0.59 nM in experiment [1] and 17 nM in experiment [2].
In the same order, the values of `Cc1ccc(S(=O)(=O)NC(=O)NCCc2ccc(-c3c(C(=O)N(C)C)sc4c(F)cc(F)cc34)cc2)cc1` are 0.53 nM and 40 nM.
Turning to `Cc1ccc(S(=O)(=O)NC(=O)NCCc2ccc(-c3c(C(=O)N(C)C)sc4c(Cl)cc(C(F)(F)F)cc34)cc2)cc1`, the results for the Ki in experiment [1] and in experiment [2] were 0.55 nM and 8.7 nM, respectively.
For `Cc1ccc(S(=O)(=O)NC(=O)NCCc2ccc(-c3c(C(=O)N(C)C)sc4c(C)ccc(C)c34)cc2)cc1`, in that order: 0.77 nM and 19 nM.
For the molecule `Cc1cc(C)c2sc(C(=O)N(C)C)c(-c3ccc(CCNC(=O)OC(C)(C)C)cc3)c2c1`, the Ki was 68 nM in [1] and 1990 nM in experiment [2].
For the molecule `COc1ccccc1CC(=O)NCCc1ccc(-c2c(C(=O)N(C)C)sc3c(C)cc(C)cc23)cc1`, the Ki amounted to 0.2 nM in [1] and 3.4 nM in experiment [2]. In addition, in experiment [9], the IC50 was 2.4 nM.
As for `Cc1cc(C)c2sc(C(=O)N(C)C)c(-c3ccc(CCNC(=O)Cc4ccccn4)cc3)c2c1`, the figures for the Ki in experiment [1] and in experiment [2] were 2.3 nM and 40 nM, respectively.
For `COc1ccccc1C1(C(=O)NCCc2ccc(-c3c(C(=O)N(C)C)sc4c(C)cc(C)cc34)cc2)CC1`, in that order: 3 nM and 17 nM.
For `Cc1cc(C)c2sc(C(=O)N(C)C)c(-c3ccc(CCNC(=O)Cc4c(Cl)cccc4Cl)cc3)c2c1`, in that order: 1.6 nM and 17 nM.
With `Cc1cc(C)c2sc(C(=O)N(C)C)c(-c3ccc(CCNc4ncccn4)cc3)c2c1`, the inhibitory constant (Ki) in [1] stood at 0.98 nM; in experiment [2], 42 nM.
